Measurements: PMC8746953, “Caseinolytic Proteins (Clp) in the Genus Klebsiella: Special Focus on ClpK” (Molecules, 2021)

Target: T1, ClpK (Klebsiella pneumoniae, UniProt E0W6V3)
T1 construct: full-length codon-optimised gene in pColdI (BamH1/SalH1), His-tagged, expressed in E. coli BL21; oligomer not measured
Assay: fluorescence emission of mant-nucleotide (excitation […] nm)
Assay type: binding
Details: 2 uM ClpK, 10 uM mant-ATP; 10 mM sodium phosphate pH 7.4, 20 °C; labelled compound

T1 sequence (E0W6V3 entry or part of it): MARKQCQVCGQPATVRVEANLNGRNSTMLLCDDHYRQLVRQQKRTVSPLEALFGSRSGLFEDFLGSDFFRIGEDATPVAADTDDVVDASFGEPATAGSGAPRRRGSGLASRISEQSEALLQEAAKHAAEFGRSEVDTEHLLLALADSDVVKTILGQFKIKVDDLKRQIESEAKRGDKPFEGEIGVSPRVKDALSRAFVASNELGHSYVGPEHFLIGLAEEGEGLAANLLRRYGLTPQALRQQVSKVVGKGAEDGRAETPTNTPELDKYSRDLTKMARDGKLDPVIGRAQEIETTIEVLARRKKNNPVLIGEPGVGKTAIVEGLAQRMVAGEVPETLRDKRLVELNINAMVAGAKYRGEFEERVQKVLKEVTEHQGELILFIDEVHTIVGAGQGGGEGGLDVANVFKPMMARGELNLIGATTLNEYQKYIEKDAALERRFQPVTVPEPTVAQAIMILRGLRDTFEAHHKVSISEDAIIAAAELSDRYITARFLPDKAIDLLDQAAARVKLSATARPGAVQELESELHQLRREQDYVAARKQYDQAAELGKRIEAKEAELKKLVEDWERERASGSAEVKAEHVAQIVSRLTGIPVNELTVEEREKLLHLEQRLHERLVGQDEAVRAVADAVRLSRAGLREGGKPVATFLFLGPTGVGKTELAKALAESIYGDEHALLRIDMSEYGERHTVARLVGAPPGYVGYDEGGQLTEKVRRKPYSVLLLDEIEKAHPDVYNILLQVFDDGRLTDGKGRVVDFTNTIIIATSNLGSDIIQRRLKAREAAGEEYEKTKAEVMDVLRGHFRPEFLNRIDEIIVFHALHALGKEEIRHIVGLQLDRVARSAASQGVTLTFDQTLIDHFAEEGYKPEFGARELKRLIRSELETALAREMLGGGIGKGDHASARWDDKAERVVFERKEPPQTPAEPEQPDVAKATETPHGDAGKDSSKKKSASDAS

CNc1ccccc1C(=O)O[C@H]1[C@@H](O)[C@H](n2cnc3c(N)ncnc32)O[C@@H]1COP(=O)(O)OP(=O)(O)OP(=O)(O)O [mant-ATP] was tested, and the “fluorescence emission of mant-nucleotide (excitation 355 nm)” value was “The spectrum indicates binding of mant-ATP as indicated by an increase in the fluorescence quantum yield”.
